Experimental data: patent US20040110771A1, “7-(r)-aminotriazolopyrimidines, the production thereof and use of the same for combatting phytopathogenic fungi” (priority 2000, published 2004)

Assays:
Format in all cases: in vivo
Puccinia recondita = experiment: Curative activity against brown rust of wheat caused by Puccinia recondita; details: curative spray 24 h after inoculation, wheat seedlings "Kanzler", 7 days
Experimental: (§1) The active compounds were prepared separately or jointly as a 10% strength emulsion in a mixture of 70% by weight of cyclohexanone, 20% by weight of Nekanil® LN (Lutensol® AP6, wetting agent having emulsifying and dispersing action based on ethoxylated alkylphenols) and 10% by weight of Wettol® EM (nonionic emulsifier based on ethoxylated castor oil) and diluted with water to the desired concentration.
Leaves of potted wheat seedlings of the cultivar “Kanzler” were dusted with spores of brown rust (Puccinia recondita). The pots were then placed in a chamber with high atmospheric humidity (90 to 95%) at 20-22° C. for 24 hours. During this period, the spores germinated and the germinal tubes penetrated into the leaf tissue. The following day, the infected plants were sprayed to runoff point with an aqueous preparation of active compound which had been prepared from a stock solution made of 10% of active compound, 85% of cyclohexanone and 5% of emulsifier. After the spray coating had dried on, the test plants were cultivated in a greenhouse at 20-22° C. and 65-70% relative atmospheric humidity for 7 days. The extent of the rust fungus development on the leaves was then determined.

[1] = system: Blumeria graminis forma specialis tritici; experiment: Activity against mildew of wheat caused by Blumeria graminis forma specialis tritici; details: wheat seedlings "Kanzler", dusted with spores 24 h after spraying, 7 days
Experimental: as §1
Leaves of potted wheat seedlings of the cultivar “Kanzler” were sprayed to runoff point with an aqueous preparation of active compound which had been prepared from a stock solution made of 10% of active compound, 85% of cyclohexanone and 5% of emulsifier and were dusted 24 hours after the spray coating had dried on with spores of mildew of wheat (Blumeria graminis forma specialis tritici). The test plants were then placed in a greenhouse at 20-24° C. and 60-90% relative atmospheric humidity. After 7 days, the extent of the mildew development was determined visually in % infection of the entire leaf area.

Pyrenophora teres = experiment: Activity against net blotch of barley caused by Pyrenophora teres; details: barley seedlings "Igri", inoculated 24 h after spraying, 6 days
Experimental: as §1
Leaves of potted barley seedlings of the cultivar “Igri” were sprayed to runoff point with an aqueous preparation of active compound which had been prepared from a stock solution made of 10% of active compound, 85% of cyclohexanone and 5% of emulsifier and were inoculated 24 hours after the spray coating had dried on with an aqueous spore suspension of Pyrenophora teres, the net blotch pathogen. The test plants were then placed in a greenhouse at 20-24° C. and 95-100% relative atmospheric humidity. After 6 days, the extent of the development of the disease was determined visually in % infection of the entire leaf area.

## CC[C@@H](C)Nc1c(-c2ccc(F)cc2C)c(Cl)nc2ncnn12 [I.-22]
Puccinia recondita; 16 ppm
  % infection of the leaves after application of an aqueous preparation comprising . . . ppm of active compound: 30%
Puccinia recondita; 63 ppm
  % infection of the leaves after application of an aqueous preparation comprising . . . ppm of active compound: 5%
Puccinia recondita; 250 ppm
  % infection of the leaves after application of an aqueous preparation comprising . . . ppm of active compound: 3%
[1]; 16 ppm
  % infection of the leaves after application of an aqueous preparation comprising . . . ppm of active compound: 5%
[1]; 63 ppm
  % infection of the leaves after application of an aqueous preparation comprising . . . ppm of active compound: 3%
[1]; 250 ppm
  % infection of the leaves after application of an aqueous preparation comprising . . . ppm of active compound: 3%
Pyrenophora teres; 16 ppm
  % infection of the leaves after application of an aqueous preparation comprising . . . ppm of active compound: 7%
Pyrenophora teres; 63 ppm
  % infection of the leaves after application of an aqueous preparation comprising . . . ppm of active compound: 0%

## Cc1cccc(F)c1-c1c(Cl)nc2ncnn2c1NC(C)C(C)C [comparison (S)-amine of I.-11a]
Puccinia recondita; 16 ppm
  % infection of the leaves after application of an aqueous preparation comprising . . . ppm of active compound: 100%
Puccinia recondita; 63 ppm
  % infection of the leaves after application of an aqueous preparation comprising . . . ppm of active compound: 60%
Puccinia recondita; 250 ppm
  % infection of the leaves after application of an aqueous preparation comprising . . . ppm of active compound: 30%
[1]; 16 ppm
  % infection of the leaves after application of an aqueous preparation comprising . . . ppm of active compound: 80%
[1]; 63 ppm
  % infection of the leaves after application of an aqueous preparation comprising . . . ppm of active compound: 60%
[1]; 250 ppm
  % infection of the leaves after application of an aqueous preparation comprising . . . ppm of active compound: 60%
Pyrenophora teres; 16 ppm
  % infection of the leaves after application of an aqueous preparation comprising . . . ppm of active compound: 100%
Pyrenophora teres; 63 ppm
  % infection of the leaves after application of an aqueous preparation comprising . . . ppm of active compound: 100%
Pyrenophora teres; 250 ppm
  % infection of the leaves after application of an aqueous preparation comprising . . . ppm of active compound: 100%

## CCC(C)Nc1c(-c2ccc(F)cc2C)c(Cl)nc2ncnn12 [comparison (S)-amine of I.-22]
Puccinia recondita; 16 ppm
  % infection of the leaves after application of an aqueous preparation comprising . . . ppm of active compound: 100%
Puccinia recondita; 63 ppm
  % infection of the leaves after application of an aqueous preparation comprising . . . ppm of active compound: 100%
Puccinia recondita; 250 ppm
  % infection of the leaves after application of an aqueous preparation comprising . . . ppm of active compound: 100%
[1]; 16 ppm
  % infection of the leaves after application of an aqueous preparation comprising . . . ppm of active compound: 80%
[1]; 63 ppm
  % infection of the leaves after application of an aqueous preparation comprising . . . ppm of active compound: 70%
[1]; 250 ppm
  % infection of the leaves after application of an aqueous preparation comprising . . . ppm of active compound: 70%
Pyrenophora teres; 16 ppm
  % infection of the leaves after application of an aqueous preparation comprising . . . ppm of active compound: 80%
Pyrenophora teres; 63 ppm
  % infection of the leaves after application of an aqueous preparation comprising . . . ppm of active compound: 7%

## CCC(C)Nc1c(-c2c(C)cccc2F)c(Cl)nc2ncnn12 (centres unmarked) [I.-10]
Puccinia recondita; 16 ppm
  % infection of the leaves after application of an aqueous preparation comprising . . . ppm of active compound: 60%
Puccinia recondita; 63 ppm
  % infection of the leaves after application of an aqueous preparation comprising . . . ppm of active compound: 40%
Puccinia recondita; 250 ppm
  % infection of the leaves after application of an aqueous preparation comprising . . . ppm of active compound: 15%
[1]; 63 ppm
  % infection of the leaves after application of an aqueous preparation comprising . . . ppm of active compound: 60%
[1]; 250 ppm
  % infection of the leaves after application of an aqueous preparation comprising . . . ppm of active compound: 15%
Pyrenophora teres; 63 ppm
  % infection of the leaves after application of an aqueous preparation comprising . . . ppm of active compound: 3%
Pyrenophora teres; 250 ppm
  % infection of the leaves after application of an aqueous preparation comprising . . . ppm of active compound: 3%

## CC[C@@H](C)Nc1c(-c2c(F)cc(F)cc2F)c(Cl)nc2ncnn12 [I.-13]
Puccinia recondita; 16 ppm
  % infection of the leaves after application of an aqueous preparation comprising . . . ppm of active compound: 3%
Puccinia recondita; 63 ppm
  % infection of the leaves after application of an aqueous preparation comprising . . . ppm of active compound: 0%
[1]; 16 ppm
  % infection of the leaves after application of an aqueous preparation comprising . . . ppm of active compound: 60%
[1]; 63 ppm
  % infection of the leaves after application of an aqueous preparation comprising . . . ppm of active compound: 40%
Pyrenophora teres; 16 ppm
  % infection of the leaves after application of an aqueous preparation comprising . . . ppm of active compound: 20%

## COCC(C)Nc1c(-c2c(F)cc(F)cc2F)c(Cl)nc2ncnn12 (centres unmarked) [I.-32]
Puccinia recondita; 63 ppm
  % infection of the leaves after application of an aqueous preparation comprising . . . ppm of active compound: 70%
Puccinia recondita; 250 ppm
  % infection of the leaves after application of an aqueous preparation comprising . . . ppm of active compound: 15%
Pyrenophora teres; 16 ppm
  % infection of the leaves after application of an aqueous preparation comprising . . . ppm of active compound: 5%
Pyrenophora teres; 63 ppm
  % infection of the leaves after application of an aqueous preparation comprising . . . ppm of active compound: 0%
Pyrenophora teres; 250 ppm
  % infection of the leaves after application of an aqueous preparation comprising . . . ppm of active compound: 0%

## CC[C@H](C)Nc1c(-c2c(F)cccc2Cl)c(Cl)nc2ncnn12 [comparison (S)-amine of I.-1]
Puccinia recondita; 16 ppm
  % infection of the leaves after application of an aqueous preparation comprising . . . ppm of active compound: 60%
Puccinia recondita; 63 ppm
  % infection of the leaves after application of an aqueous preparation comprising . . . ppm of active compound: 20%
Puccinia recondita; 250 ppm
  % infection of the leaves after application of an aqueous preparation comprising . . . ppm of active compound: 15%
Pyrenophora teres; 16 ppm
  % infection of the leaves after application of an aqueous preparation comprising . . . ppm of active compound: 100%
Pyrenophora teres; 63 ppm
  % infection of the leaves after application of an aqueous preparation comprising . . . ppm of active compound: 20%

## COC[C@H](C)Nc1c(-c2c(F)cc(F)cc2F)c(Cl)nc2ncnn12 [comparison (S)-amine of I.-32]
Puccinia recondita; 63 ppm
  % infection of the leaves after application of an aqueous preparation comprising . . . ppm of active compound: 100%
Puccinia recondita; 250 ppm
  % infection of the leaves after application of an aqueous preparation comprising . . . ppm of active compound: 80%
Pyrenophora teres; 16 ppm
  % infection of the leaves after application of an aqueous preparation comprising . . . ppm of active compound: 90%
Pyrenophora teres; 63 ppm
  % infection of the leaves after application of an aqueous preparation comprising . . . ppm of active compound: 80%
Pyrenophora teres; 250 ppm
  % infection of the leaves after application of an aqueous preparation comprising . . . ppm of active compound: 30%

## C[C@@H](Nc1c(-c2c(F)cc(F)cc2F)c(Cl)nc2ncnn12)C(C)(C)C [I.-15, (R)-5-chloro-7-(3,3-dimethylbut-2-yl)amino-6-(2,4,6-trifluoro-phenyl)-1,2,4-triazolo[1,5-a]pyrimidine]
Puccinia recondita; 16 ppm
  % infection of the leaves after application of an aqueous preparation comprising . . . ppm of active compound: 0%
Puccinia recondita; 63 ppm
  % infection of the leaves after application of an aqueous preparation comprising . . . ppm of active compound: 0%
Puccinia recondita; 250 ppm
  % infection of the leaves after application of an aqueous preparation comprising . . . ppm of active compound: 0%
[1]; 16 ppm
  % infection of the leaves after application of an aqueous preparation comprising . . . ppm of active compound: 7%
[1]; 63 ppm
  % infection of the leaves after application of an aqueous preparation comprising . . . ppm of active compound: 7%
[1]; 250 ppm
  % infection of the leaves after application of an aqueous preparation comprising . . . ppm of active compound: 3%

## CCCC[C@@H](C)Nc1c(-c2c(F)cc(F)cc2F)c(Cl)nc2ncnn12 [I.-27]
Puccinia recondita; 250 ppm
  % infection of the leaves after application of an aqueous preparation comprising . . . ppm of active compound: 40%
Pyrenophora teres; 16 ppm
  % infection of the leaves after application of an aqueous preparation comprising . . . ppm of active compound: 3%
Pyrenophora teres; 63 ppm
  % infection of the leaves after application of an aqueous preparation comprising . . . ppm of active compound: 0%
Pyrenophora teres; 250 ppm
  % infection of the leaves after application of an aqueous preparation comprising . . . ppm of active compound: 0%

## C[C@H](Nc1c(-c2c(F)cc(F)cc2F)c(Cl)nc2ncnn12)C(C)(C)C [comparison (S)-amine of I.-15]
Puccinia recondita; 16 ppm
  % infection of the leaves after application of an aqueous preparation comprising . . . ppm of active compound: 100%
Puccinia recondita; 63 ppm
  % infection of the leaves after application of an aqueous preparation comprising . . . ppm of active compound: 100%
Puccinia recondita; 250 ppm
  % infection of the leaves after application of an aqueous preparation comprising . . . ppm of active compound: 100%
[1]; 16 ppm
  % infection of the leaves after application of an aqueous preparation comprising . . . ppm of active compound: 90%
[1]; 63 ppm
  % infection of the leaves after application of an aqueous preparation comprising . . . ppm of active compound: 80%
[1]; 250 ppm
  % infection of the leaves after application of an aqueous preparation comprising . . . ppm of active compound: 40%

## CC[C@@H](C)Nc1c(-c2c(F)cccc2Cl)c(Cl)nc2ncnn12 [I.-1]
Puccinia recondita; 16 ppm
  % infection of the leaves after application of an aqueous preparation comprising . . . ppm of active compound: 5%
Puccinia recondita; 63 ppm
  % infection of the leaves after application of an aqueous preparation comprising . . . ppm of active compound: 3%
Puccinia recondita; 250 ppm
  % infection of the leaves after application of an aqueous preparation comprising . . . ppm of active compound: 0%
Pyrenophora teres; 16 ppm
  % infection of the leaves after application of an aqueous preparation comprising . . . ppm of active compound: 50%
Pyrenophora teres; 63 ppm
  % infection of the leaves after application of an aqueous preparation comprising . . . ppm of active compound: 0%

## CCCC[C@H](C)Nc1c(-c2c(F)cc(F)cc2F)c(Cl)nc2ncnn12 [comparison (S)-amine of I.-27]
Puccinia recondita; 250 ppm
  % infection of the leaves after application of an aqueous preparation comprising . . . ppm of active compound: 100%
Pyrenophora teres; 16 ppm
  % infection of the leaves after application of an aqueous preparation comprising . . . ppm of active compound: 100%
Pyrenophora teres; 63 ppm
  % infection of the leaves after application of an aqueous preparation comprising . . . ppm of active compound: 90%
Pyrenophora teres; 250 ppm
  % infection of the leaves after application of an aqueous preparation comprising . . . ppm of active compound: 7%
